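Assay format: 96-well plates, 48-hour exposure. GI50 = concentration required for 50% inhibition of growth.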 Calls of active or inactive are those of the source. Cut-off read from the data, not from the text of the source: active = GI50 up to about 1.1 µM and inactive = higher.
Tests used:
Test in all cases: inhibition of tumour cell growth, NCI panel, 48 h
NCI-H23 = test system: NCI-H23
SK-OV-3 = test system: SK-OV-3
SN12C = test system: SN12C
U-251 = test system: U-251
MDA-MB-435 = test system: MDA-MB-435
OVCAR-5 = test system: OVCAR-5
HOP-62 = test system: HOP-62
ACHN = test system: ACHN
KM12 = test system: KM12
SNB-19 = test system: SNB-19
MCF7 = test system: MCF7
MDA-MB-231 = test system: MDA-MB-231
NCI/ADR-RES = test system: NCI/ADR-RES
SNB-75 = test system: SNB-75
NCI-H226 = test system: NCI-H226
CAKI-1 = test system: CAKI-1
K562 = test system: K562
DU-145 = test system: DU-145
MDA-N = test system: MDA-N
NCI-H522 = test system: NCI-H522

Row | SMILES | GI50 (NCI-H23) | GI50 (SK-OV-3) | GI50 (SN12C) | GI50 (U-251) | GI50 (MDA-MB-435) | GI50 (OVCAR-5) | GI50 (HOP-62) | GI50 (ACHN) | GI50 (KM12) | GI50 (SNB-19) | GI50 (MCF7) | GI50 (MDA-MB-231) | GI50 (NCI/ADR-RES) | GI50 (SNB-75) | GI50 (NCI-H226) | GI50 (CAKI-1) | GI50 (K562) | GI50 (DU-145) | GI50 (MDA-N) | GI50 (NCI-H522)
1 | CCOc1ccc(N/C(=C(/C(Cl)=C(/Cl)NC(C)(C)C)[N+](=O)[O-])n2nnc3ccccc32)cc1 | 22.6 µM (inactive) | 59.8 µM (inactive) | 34 µM (inactive) | 19 µM (inactive) | 18.2 µM (inactive) | 31.6 µM (inactive) | 70 µM (inactive) | 31.8 µM (inactive) | 21.1 µM (inactive) | 47.6 µM (inactive) | 26.1 µM (inactive) | 17.9 µM (inactive) | 32.4 µM (inactive) | 24.2 µM (inactive) | > 100 µM (inactive) | 19.3 µM (inactive) | > 100 µM (inactive) | – | – | –
2 | CCC(=O)/C(=C\I)c1ccccc1 | 3.71 µM (inactive) | 16.6 µM (inactive) | 2.16 µM (inactive) | 2.23 µM (inactive) | 3.36 µM (inactive) | 1.84 µM (inactive) | 21 µM (inactive) | – | 6.56 µM (inactive) | 15.3 µM (inactive) | 1.67 µM (inactive) | 1.75 µM (inactive) | 12.4 µM (inactive) | 1.52 µM (inactive) | 23.4 µM (inactive) | – | 0.796 µM (active) | 7.19 µM (inactive) | 2.85 µM (inactive) | –
3 | C=CCN1C(=O)CC2[C@@H]3CCc4cc(O)ccc4C3CC[C@]2(C)C1=O (stereo partly drawn) | > 10 µM (inactive) | > 10 µM (inactive) | > 10 µM (inactive) | > 10 µM (inactive) | > 10 µM (inactive) | > 10 µM (inactive) | > 10 µM (inactive) | > 10 µM (inactive) | > 10 µM (inactive) | > 10 µM (inactive) | > 10 µM (inactive) | > 10 µM (inactive) | > 10 µM (inactive) | – | > 10 µM (inactive) | > 10 µM (inactive) | > 10 µM (inactive) | > 10 µM (inactive) | > 10 µM (inactive) | –
4 | CCOC(=O)c1c(NS(=O)(=O)c2ccc(C)cc2)sc2c1CCCC2 | 18.1 µM (inactive) | – | 31.8 µM (inactive) | – | – | 65.3 µM (inactive) | 23.2 µM (inactive) | 29.9 µM (inactive) | 19 µM (inactive) | 35.1 µM (inactive) | 24.4 µM (inactive) | 22.5 µM (inactive) | 27 µM (inactive) | 27.1 µM (inactive) | 40.8 µM (inactive) | 38.9 µM (inactive) | 20.6 µM (inactive) | 33.6 µM (inactive) | 42.7 µM (inactive) | –
5 | N#CSCc1cccc(Nc2cc(=O)[nH]c(=O)[nH]2)c1 | > 100 µM (inactive) | > 100 µM (inactive) | > 100 µM (inactive) | 94.4 µM (inactive) | > 100 µM (inactive) | > 100 µM (inactive) | > 100 µM (inactive) | > 100 µM (inactive) | 97.1 µM (inactive) | > 100 µM (inactive) | 7.23 µM (inactive) | > 100 µM (inactive) | > 100 µM (inactive) | > 100 µM (inactive) | 48.3 µM (inactive) | > 100 µM (inactive) | 30.5 µM (inactive) | – | 52.4 µM (inactive) | 39.7 µM (inactive)
6 | CCOc1cc(C=O)c2c(ccc3ccc(OC)c(OC)c32)c1OC | 64 µM (inactive) | > 100 µM (inactive) | 70.6 µM (inactive) | 88.9 µM (inactive) | 70.6 µM (inactive) | > 100 µM (inactive) | – | 44 µM (inactive) | 27.2 µM (inactive) | > 100 µM (inactive) | – | > 100 µM (inactive) | 17.5 µM (inactive) | 36.3 µM (inactive) | 67.1 µM (inactive) | 93.5 µM (inactive) | 14.5 µM (inactive) | > 100 µM (inactive) | 57 µM (inactive) | 38.5 µM (inactive)
7 | COc1cc(-c2nc(SC)nc3c2CCc2ccccc2-3)cc(OC)c1OC | > 100 µM (inactive) | > 100 µM (inactive) | > 100 µM (inactive) | 93.1 µM (inactive) | 95.1 µM (inactive) | > 100 µM (inactive) | > 100 µM (inactive) | > 100 µM (inactive) | 65.9 µM (inactive) | > 100 µM (inactive) | 50.1 µM (inactive) | 28.3 µM (inactive) | 36.3 µM (inactive) | > 100 µM (inactive) | > 10 µM (inactive) | – | 22.3 µM (inactive) | 79.8 µM (inactive) | – | –
8 | CC(C)(O)[C@@H]1CC[C@](C)(C2[C@@H](O)C[C@@]3(C)C4C[C@H](OC5OCC(O)C(O)C5O)[C@H]5C(C)(C)[C@@H](OC6OCC(O)C(O)C6OC6OCC(O)C(O)C6O)CC[C@@]56C[C@@]46CC[C@]23C)O1 (stereo partly drawn) | > 100 µM (inactive) | > 100 µM (inactive) | > 100 µM (inactive) | > 100 µM (inactive) | > 100 µM (inactive) | > 100 µM (inactive) | > 100 µM (inactive) | – | > 100 µM (inactive) | > 100 µM (inactive) | > 100 µM (inactive) | > 100 µM (inactive) | > 100 µM (inactive) | > 100 µM (inactive) | > 100 µM (inactive) | > 100 µM (inactive) | > 100 µM (inactive) | > 100 µM (inactive) | – | > 100 µM (inactive)
9 | COC(=O)[C@](NC(=O)OCc1ccccc1)([C@@H](C)Sc1ccc(C)cc1)C(F)(F)F | 19.7 µM (inactive) | > 100 µM (inactive) | – | 46.9 µM (inactive) | 49.2 µM (inactive) | > 100 µM (inactive) | > 100 µM (inactive) | 60.3 µM (inactive) | 42.7 µM (inactive) | > 100 µM (inactive) | 28.9 µM (inactive) | – | 36 µM (inactive) | – | – | 57.5 µM (inactive) | 23.6 µM (inactive) | 24.7 µM (inactive) | 63.5 µM (inactive) | 25.1 µM (inactive)
10 | COC(=O)C1(C(=O)OC)N=C(C)OC1c1ccoc1 (stereo not drawn) | > 100 µM (inactive) | > 100 µM (inactive) | > 100 µM (inactive) | > 100 µM (inactive) | > 100 µM (inactive) | > 100 µM (inactive) | > 100 µM (inactive) | > 100 µM (inactive) | > 100 µM (inactive) | > 100 µM (inactive) | > 100 µM (inactive) | – | > 100 µM (inactive) | > 100 µM (inactive) | > 100 µM (inactive) | > 100 µM (inactive) | 99.8 µM (inactive) | > 100 µM (inactive) | > 100 µM (inactive) | –
11 | N#Cc1nn(C(N)=O)c(N)c1C#N | > 100 µM (inactive) | > 100 µM (inactive) | > 100 µM (inactive) | > 100 µM (inactive) | – | > 100 µM (inactive) | > 100 µM (inactive) | > 100 µM (inactive) | > 100 µM (inactive) | > 100 µM (inactive) | > 100 µM (inactive) | > 100 µM (inactive) | > 100 µM (inactive) | > 100 µM (inactive) | > 100 µM (inactive) | > 100 µM (inactive) | > 100 µM (inactive) | > 100 µM (inactive) | > 100 µM (inactive) | > 100 µM (inactive)
12 | CCCCS(=O)(=O)CCC(N)P(=O)(O)O (stereo not drawn) | > 100 µM (inactive) | > 100 µM (inactive) | > 100 µM (inactive) | > 100 µM (inactive) | > 100 µM (inactive) | > 100 µM (inactive) | > 100 µM (inactive) | > 100 µM (inactive) | > 100 µM (inactive) | > 100 µM (inactive) | > 100 µM (inactive) | – | > 100 µM (inactive) | > 100 µM (inactive) | > 100 µM (inactive) | > 100 µM (inactive) | > 100 µM (inactive) | > 100 µM (inactive) | > 100 µM (inactive) | > 100 µM (inactive)
13 | Cc1cccc2c1nc1n2C(=O)c2ccccc2-1 | > 100 µM (inactive) | > 100 µM (inactive) | > 100 µM (inactive) | > 100 µM (inactive) | – | > 100 µM (inactive) | – | > 100 µM (inactive) | > 100 µM (inactive) | > 100 µM (inactive) | > 100 µM (inactive) | – | > 100 µM (inactive) | > 100 µM (inactive) | > 100 µM (inactive) | > 100 µM (inactive) | > 100 µM (inactive) | > 100 µM (inactive) | > 100 µM (inactive) | > 100 µM (inactive)
14 | CCC/C(=N\NC(=S)N1CC2CCC(CC2)C1)c1ccccn1 | 0.422 µM (active) | 0.927 µM (active) | 0.395 µM (active) | 0.181 µM (active) | 0.585 µM (active) | 0.649 µM (active) | 0.713 µM (active) | 0.131 µM (active) | 0.144 µM (active) | 0.571 µM (active) | 0.042 µM (active) | 1.01 µM (active) | – | 0.185 µM (active) | 1.82 µM (inactive) | 1.21 µM (inactive) | 0.00581 µM (active) | 1.49 µM (inactive) | 0.685 µM (active) | 0.282 µM (active)
15 | COc1ccc(S(=O)(=O)N[C@H](C(=O)O)c2ccccc2)cc1 | > 100 µM (inactive) | > 100 µM (inactive) | > 100 µM (inactive) | > 100 µM (inactive) | – | > 100 µM (inactive) | > 100 µM (inactive) | > 100 µM (inactive) | > 100 µM (inactive) | > 100 µM (inactive) | – | – | – | > 100 µM (inactive) | > 100 µM (inactive) | > 100 µM (inactive) | > 100 µM (inactive) | – | – | > 10 µM (inactive)
16 | ClCCN(CC#CCCCC#CCN(CCCl)CCCl)CCCl | 6.85 µM (inactive) | 9.31 µM (inactive) | 7.21 µM (inactive) | 8.43 µM (inactive) | – | 11.7 µM (inactive) | 11.3 µM (inactive) | 3.82 µM (inactive) | 19.2 µM (inactive) | 13.6 µM (inactive) | 8.75 µM (inactive) | – | 14.5 µM (inactive) | 10.3 µM (inactive) | 12.9 µM (inactive) | 7.67 µM (inactive) | 11 µM (inactive) | – | – | 8.3 µM (inactive)

Reference: ChEMBL document CHEMBL1201862, “PubChem BioAssay data set” (2004)
